From ChEMBL document CHEMBL3085710, “Pahangensin A and B, two new antibacterial diterpenes from the rhizomes of Alpinia pahangensis Ridley” (2013)
In brackets after ≈: the same amount, converted by molar mass.

How the values were obtained:
Bacillus cereus = assay: Antibacterial activity against Bacillus cereus Frankland and Frankland ATCC 11778 after overnight incubation by broth microdilution method; format: functional
Staphylococcus aureus = assay: Antibacterial activity against Staphylococcus aureus Rosenbach ATCC 9144 after overnight incubation by broth microdilution method; format: functional
Bacillus subtilis = assay: Antibacterial activity against Bacillus subtilis (Ehrenberg) Cohn ATCC 6051 after overnight incubation by broth microdilution method; format: functional
Salmonella sp. = assay: Antibacterial activity against Salmonella sp. ATCC 700623 after overnight incubation by broth microdilution method; format: functional
Salmonella typhimurium = assay: Antibacterial activity against Salmonella typhimurium (Loeffler) Castellani and Chalmers ATCC 14028 after overnight incubation by broth microdilution method; format: functional, Salmonella enterica subsp. enterica serovar Typhimurium; details: Salmonella enterica
Escherichia coli = assay: Antibacterial activity against Escherichia coli (Migula) Castellani and Chalmers ATCC 25922 after overnight incubation by broth microdilution method; format: functional

| MIC (Bacillus cereus) | MIC (Staphylococcus aureus) | MIC (Bacillus subtilis) | MIC (Salmonella sp.) | MIC (Escherichia coli) | SMILES | MIC (Salmonella typhimurium) |
| --- | --- | --- | --- | --- | --- | --- |
| 31.2 µg/mL (≈ 52.2 µM) | 52.1 µg/mL (≈ 87 µM) | 31.2 µg/mL (≈ 52.2 µM) |  |  | C=C1CC[C@H]2C(C)(C)CCC[C@]2(C)[C@H]1/C=C/C1=C(C2=C(/C=C/[C@H]3C(=C)CC[C@H]4C(C)(C)CCC[C@]34C)COC2=O)C(=O)OC1 |  |
| 15.6 µg/mL (≈ 48.4 µM) | 31.2 µg/mL (≈ 96.7 µM) | 15.6 µg/mL (≈ 48.4 µM) | 15.6 µg/mL (≈ 48.4 µM) | 7.81 µg/mL (≈ 24.2 µM) | O=C(N[C@H](CO)[C@H](O)c1ccc([N+](=O)[O-])cc1)C(Cl)Cl [CHLORAMPHENICOL] | 15.6 µg/mL (≈ 48.3 µM) |
| 15.6 µg/mL (≈ 26.9 µM) | 31.2 µg/mL (≈ 53.7 µM) | 31.2 µg/mL (≈ 53.7 µM) | 15.6 µg/mL (≈ 26.9 µM) | 15.6 µg/mL (≈ 26.9 µM) | CN[C@@H]1[C@H](O[C@H]2[C@H](O[C@H]3[C@H](O)[C@@H](O)[C@H](N=C(N)N)[C@@H](O)[C@@H]3N=C(N)N)O[C@@H](C)[C@]2(O)C=O)O[C@@H](CO)[C@H](O)[C@H]1O [STREPTOMYCIN] | 62.5 µg/mL (≈ 107 µM) |

Further lines, the compound ahead of its results:

| SMILES | MIC (Bacillus cereus) | MIC (Staphylococcus aureus) | MIC (Bacillus subtilis) | MIC (Salmonella sp.) | MIC (Escherichia coli) | MIC (Salmonella typhimurium) |
| --- | --- | --- | --- | --- | --- | --- |
| C=C1CC[C@H]2C(C)(C)CCC[C@]2(C)[C@H]1C/C=C(/C=O)CC(=O)OC | 52.1 µg/mL (≈ 157 µM) |  |  |  |  |  |
| CC1(C)S[C@@H]2[C@H](NC(=O)Cc3ccccc3)C(=O)N2[C@H]1C(=O)O [PENICILLIN G] | 62.5 µg/mL (≈ 187 µM) | 3.91 µg/mL (≈ 11.7 µM) | 15.6 µg/mL (≈ 46.7 µM) | 31.2 µg/mL (≈ 93.5 µM) | 125 µg/mL (≈ 374 µM) | 125 µg/mL (≈ 374 µM) |
